Starred links: 1 amine or outer side, 2 acyl side, 3 side chain; linkers in the order of their positions; H or OH if unused. Positions of bridges follow the written chain, without caps; N, C: chain ends. Non-standard residues stand in square brackets, D forms with d. Residues, ends and D or L forms follow the SMILES beside them. *: point of attachment. X1 = CCOCc1nc2c(NC(=O)OCCSSC(C)CCC(=O)*)nc3ccccc3c2n1CC(C)(C)O; 1Nal = N[C@@H](Cc1cccc2ccccc12)C(=O)O; TBMB = c1c(C[*:1])cc(C[*:3])cc1C[*:2]; Tle = CC(C)(C)[C@H](N)C(=O)O; βAla = NCCC(=O)O; Sar = CNCC(=O)O
How the values were obtained:
Plasma stability, human = assay type: in vitro ADME; conditions: pH 7.4; human plasma, 2 μM, 37° C.; read-out: T1/2 (human)
human TLR7 = target: T1, human TLR7 (Homo sapiens, UniProt Q9NYK1); test: Human TLR7 receptor activation, HEK293 reporter cell line; assay type: cell-based; conditions: HEK293 reporter cells, 16 hours
T1 construct: host or cells: HEK293 reporter cell line
T1 sequence (Q9NYK1 27-1049): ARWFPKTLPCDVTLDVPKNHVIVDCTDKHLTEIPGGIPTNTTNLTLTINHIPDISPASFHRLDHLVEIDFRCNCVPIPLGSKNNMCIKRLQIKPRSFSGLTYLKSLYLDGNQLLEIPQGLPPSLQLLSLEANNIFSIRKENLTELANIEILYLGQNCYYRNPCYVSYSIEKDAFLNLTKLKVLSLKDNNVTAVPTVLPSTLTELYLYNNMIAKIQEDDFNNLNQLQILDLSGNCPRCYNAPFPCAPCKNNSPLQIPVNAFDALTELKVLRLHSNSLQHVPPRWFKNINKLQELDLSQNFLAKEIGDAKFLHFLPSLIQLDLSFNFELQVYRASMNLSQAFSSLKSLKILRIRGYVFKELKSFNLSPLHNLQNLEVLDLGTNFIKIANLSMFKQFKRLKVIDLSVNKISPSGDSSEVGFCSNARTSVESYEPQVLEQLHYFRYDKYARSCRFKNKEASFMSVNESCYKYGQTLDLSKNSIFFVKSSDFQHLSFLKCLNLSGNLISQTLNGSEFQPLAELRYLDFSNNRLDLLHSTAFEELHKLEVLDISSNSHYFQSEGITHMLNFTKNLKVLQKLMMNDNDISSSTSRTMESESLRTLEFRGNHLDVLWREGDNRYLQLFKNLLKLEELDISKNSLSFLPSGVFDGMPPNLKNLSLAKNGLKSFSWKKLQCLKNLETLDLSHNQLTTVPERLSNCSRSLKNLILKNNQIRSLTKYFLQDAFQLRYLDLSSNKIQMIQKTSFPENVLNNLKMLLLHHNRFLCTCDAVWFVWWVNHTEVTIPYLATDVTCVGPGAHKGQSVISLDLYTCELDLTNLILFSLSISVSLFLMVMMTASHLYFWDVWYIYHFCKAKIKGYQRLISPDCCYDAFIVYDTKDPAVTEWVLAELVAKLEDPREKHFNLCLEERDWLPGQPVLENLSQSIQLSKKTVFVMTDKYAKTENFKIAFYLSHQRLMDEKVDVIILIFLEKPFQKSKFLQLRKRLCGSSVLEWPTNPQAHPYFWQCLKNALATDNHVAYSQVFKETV
Procedure: Compounds were tested for their activity to activate human TLR7 and TLR8 receptors using HEK293 reporter cell lines engineered to express respective receptors in accordance to manufacturer's instructions (InvivoGen). […] Incubation was for 16 hours at 37° C. and […]. Absorption at 655 nm was read on […]. Data was fitted using PRISM.

B16F10 xenograft = test: In vivo efficacy of I-8 alone or with antiPD-1 mAb in B16F10 xenograft; set-up: species or system C57BL/6J mice
Procedure: B16F10 tumor cells were maintained in vitro as a monolayer culture in EMEM medium supplemented with 10% heat inactivated fetal bovine serum at 37° C. in an atmosphere of 5% CO2 in air. The tumor cells were routinely subcultured twice weekly by trypsin-EDTA treatment. The cells growing in an exponential growth phase were harvested and counted for tumor inoculation.
6-8 week old female C57BL/6J mice were inoculated subcutaneously at the right flank with B16F10 tumor cells (5×10^5) in 0.1 ml of PBS for tumor development. Animals were randomized when the average tumor volume reached 65 mm^3.
Conjugates were formulated in 25 mM Histidine, 10% sucrose pH=7 buffer (vehicle) and administered intravenously. Anti-PD1 antibody (Wuxi AppTech, Shanghai, China) was formulated in aqueous buffer and administered intraperitoneally.
Tumor volume was measured three times weekly in two dimensions using a caliper, and the volume was expressed in mm^3 using the formula: V=0.5 a×b^2 where a and b are the long and short diameters of the tumor, respectively. The tumor size was then used for calculations of T/C value. The T/C value (in percent) is an indication of antitumor effectiveness; T and C are the mean volumes of the treated and control groups, respectively, on a given day.
TGI was calculated for each group using the formula: TGI (%)=[1−(Ti−T0)/(Vi−V0)]×100; Ti is the average tumor volume of a treatment group on a given day, T0 is the average tumor volume of the treatment group on the day of treatment start, Vi is the average tumor volume of the vehicle control group on the same day with Ti, and V0 is the average tumor volume of the vehicle group on the day of treatment start.
Summary statistics, including mean and the standard error of the mean (SEM), are provided for the tumor volume of each group at each time point.
Statistical analysis of difference in tumor volume among the groups was conducted on the data obtained at the best therapeutic time point after the final dose.
A one-way ANOVA was performed to compare tumor volume among groups, and when a significant F-statistics (a ratio of treatment variance to the error variance) was obtained, comparisons between groups were carried out with Games-Howell test. All data were analyzed using Prism. P<0.05 was considered to be statistically significant.

Plasma stability, mouse = assay type: in vitro ADME; conditions: pH 7.4; mouse plasma, 2 μM, 37° C.; read-out: T1/2 (mouse)
[1] = Study 2, day 9, I-8 20 mpk iv tiw, aPD1 10 mpk ip qw

Compound: CCOCc1nc2c(NC(=O)OCCSSC(C)CCC(=O)NCCC(=O)N(C)CC(=O)N(C)CC(=O)N(C)CC(=O)N(C)CC(=O)N(C)CC(=O)N(C)CC(=O)N(C)CC(=O)N(C)CC(=O)N(C)CC(=O)N(C)CC(=O)N[C@@H](C)C(=O)N[C@H]3CSCc4cc5cc(c4)CSC[C@H](NC(=O)[C@@H](C)NC(=O)[C@H](Cc4cccc6ccccc46)NC(=O)[C@H](CCC(=O)O)NC(=O)[C@H](CC(N)=O)NC(=O)[C@@H](C)NC3=O)C(=O)N[C@@H](CCC(=O)O)C(=O)N[C@@H](CC(=O)O)C(=O)N[C@@H](Cc3ccccc3)C(=O)N[C@@H](Cc3ccc(O)cc3)C(=O)N[C@@H](CC(=O)O)C(=O)N[C@@H](C(C)(C)C)C(=O)N[C@H](C(N)=O)CSC5)nc3ccccc3c2n1CC(C)(C)O (stereo partly drawn) [I-8] ({X1-βAla}-[Sar][Sar][Sar][Sar][Sar][Sar][Sar][Sar][Sar][Sar]AC[dA]NE[1Nal][dA]CEDFYD[Tle]C-NH2; linker 12-18-25 via TBMB)
- half-life at 2 μM (Plasma stability, human): 2 to 6 h
- hTLR7 activation potency versus naked payload resiquimod (human TLR7): considerably reduced potency or inactivity
- T/C (B16F10 xenograft; Study 1, 20 mpk iv tiw, day 9): 54.9%
- TGI (B16F10 xenograft; Study 1, 20 mpk iv tiw, day 9): 50.0%
- Tumor Volume (Mean ± SEM) (B16F10 xenograft; Study 1, 20 mpk iv tiw, day 9): 356 ± 60 mm^3
- T/C (B16F10 xenograft; Study 1, 60 mpk iv tiw, day 9): 25.6%
- TGI (B16F10 xenograft; Study 1, 60 mpk iv tiw, day 9): 82.9%
- Tumor Volume (Mean ± SEM) (B16F10 xenograft; Study 1, 60 mpk iv tiw, day 9): 166 ± 26 mm^3
- T/C (B16F10 xenograft; [1]): 86.8%
- TGI (B16F10 xenograft; [1]): 13.7%
- Tumor Volume (Mean ± SEM) (B16F10 xenograft; [1]): 1678 ± 1129 mm^3
- half-life at 2 μM (Plasma stability, mouse): < 2 h

Source: patent US20200283482A1, “BICYCLIC PEPTIDE LIGAND PRR-A CONJUGATES AND USES THEREOF” (BicycleRD Limited, priority 2017, published 2020)
